Measurements taken from patent US20260115197A1, “TREATMENT COMPOSITION FOR INHIBITING SYSTEMIC SCLEROSIS VIMENTIN MUTANT PROTEIN ACTIVITY BY USING STAT6 INHIBITOR” (THE CATHOLIC UNIVERSITY OF KOREA INDUSTRY-ACADEMIC …, priority 2022, published 2026).

Columns and labels:
spleen single cells = assay: Control of fibrosis-related immunocytes in TGF-β-treated spleen single cells, flow cytometry; assay type: cell-based, B6 mouse; conditions: 10 nM, with 10 ng/ml TGF-β, 72 hours; vs TGF-β alone
Description: In order to identify an effect of inhibiting signal transducer and activator of transcription 6 (STAT6) on systemic sclerosis of the present disclosure, the control effect of immunocytes related to fibrosis was identified. Specifically, spleen single cells were obtained from a B6 mouse, treated with 10 ng/ml of transforming growth factor-β (TGF-β) and 10 nM of a STAT6 inhibitor (YM-341619, Chemical Formula 1), and then cultured for 72 hours. The expression of profibrotic T cells, M2 macrophages, and Treg related to systemic sclerosis was analyzed by flow cytometry. In addition, the expression ratio of M2 macrophages and M1 macrophages was identified to identify the control of immunocytes. As a control group, an untreated control group (Nil) and a group treated with TGF-β alone were used.

[1] = test system: human dermal fibroblast line; assay: Expression of fibrosis genes in TGF-β-treated fibroblasts, real-time PCR; assay type: cell-based; conditions: with 10 ng/ml TGF-β, 24 hours; vs TGF-β alone
Description: In order to identify the effect of STAT6 inhibition on systemic sclerosis of the present disclosure, inhibition of fibrosis genes of fibroblasts was identified. Specifically, a human dermal fibroblast line was treated with 10 ng/ml of TGF-β and […] of an STAT6 inhibitor and then cultured for 24 hours. Thereafter, the expression of fibrosis factors, TGF-β, Col1a1 (Collagen, type I, alpha 1), and α-SMA 10 (alpha smooth muscle actin), was identified by real-time PCR.

M2 macrophages = assay: M2 macrophage activity in blood of bleomycin-induced systemic sclerosis animal model, flow cytometry; assay type: in vivo, B6 mouse; conditions: 10 mg/kg orally daily; BLM-induced; vs Vehicle group
Description: (§1) To determine whether the STAT6 inhibitor of the present disclosure alleviated systemic sclerosis, a systemic sclerosis animal model was constructed. Specifically, a 2×2 cm area on the nape of the neck of the B6 mouse was shaved using a clipper, and then subcutaneously injected with 100 μL of PBS containing 50 μg of bleomycin (BLM) daily for 2 weeks to induce systemic sclerosis. One week after the start of BLM administration, 200 μL of vehicle solution (10% DMSO, 40% PEG300, 5% tween 80 and 45% Saline) containing the STAT6 inhibitor at a concentration of 10 mg/kg was orally administered daily. Thereafter, the blood from the mouse was collected on week 1 and week 5 after induction of systemic sclerosis, and the activity of M2 macrophages capable of inducing fibrosis from the collected blood was analyzed using flow cytometry. As a control group, a wild-type mouse (WT) and a Vehicle group that was induced with systemic sclerosis but not treated with a drug were used.

[2] = test system: systemic sclerosis animal model; assay: Skin fibrosis in systemic sclerosis animal model, H&E staining; assay type: in vivo, B6 mouse; conditions: 10 mg/kg orally daily; BLM-induced; vs Vehicle group
Description: as §1
To determine whether the STAT6 inhibitor of the present disclosure alleviated systemic sclerosis, inhibition of skin fibrosis was identified. […]

[3] = test system: systemic sclerosis animal model; assay: Pulmonary fibrosis in systemic sclerosis animal model, H&E staining; assay type: in vivo, B6 mouse; conditions: 10 mg/kg orally daily; BLM-induced; vs Vehicle group
Description: as §1
It has been identified whether the STAT6 inhibition of the present disclosure inhibited pulmonary fibrosis in systemic sclerosis. Specifically, a lung tissue was obtained from the mouse sacrificed in the Example 4-1 above, and subjected to H&E staining to determine the histological score for pulmonary fibrosis.

[4] = test system: cell surface Vimentin (CSV) and fibrosis factors aSMA, Col1, IL-17; assay: Fibrosis factors and cell surface Vimentin in skin tissue of systemic sclerosis mouse, immunohistochemical staining; assay type: in vivo, B6 mouse; conditions: 10 mg/kg orally daily, vs Vehicle group
Description: as §1
In autoimmune diseases, it has been reported that Vimentin played an important role in cell interaction and the function of the immune system, and mutated or natural-type Vimentin was involved in the inflammatory responses and the pathogenesis of various autoimmune diseases (Autoimmun Rev. 2018 September: 17 (9): 926-934. doi: 10.1016/j.autrev.2018.04.004. Epub 2018 Jul. 17.), and thus, even in systemic sclerosis, the effect of the STAT6 inhibitor on the expression pattern of cell surface Vimentin (CSV) was also identified. Specifically, the expression of fibrosis factors aSMA, Col1, and IL-17 and CSV-positive cells in the skin tissue obtained in Example 4-1 was identified by immunohistochemical staining.

[5] = test system: cell surface Vimentin (CSV) and fibrosis factors aSMA, Col1, IL-17; assay: Fibrosis factors and cell surface Vimentin in lung tissue of systemic sclerosis mouse, immunohistochemical staining; assay type: in vivo, B6 mouse; conditions: 10 mg/kg orally daily, vs Vehicle group
Description: as §1
It was identified whether the STAT6 inhibition of the present disclosure inhibited cell surface Vimentin in the tissue. Specifically, the expression of fibrosis factors aSMA, Col1, and IL-17 and CSV-positive cells in the lung tissue obtained in Example 4-2 was identified by immunohistochemical staining.

[6] = test system: pSTAT6 and CD8 positive T cells; assay: pSTAT6 and CD8 positive T cells in skin and lung tissues of systemic sclerosis mouse, confocal microscopy; assay type: in vivo, B6 mouse; conditions: 10 mg/kg orally daily, vs Vehicle group
[7] = test system: Vimentin antigen-specific systemic sclerosis animal model; assay: Skin fibrosis and CSV expression in Vimentin antigen-specific systemic sclerosis animal model; assay type: in vivo, SKG mouse; conditions: 10 mg/kg subcutaneously three times a week until week 5; vs vim SSc group
Description: In systemic sclerosis, Vimentin increased the disease symptom activity of systemic sclerosis, and thus, the effect of the STAT6 inhibitor was evaluated in a Vimentin antigen-specific systemic sclerosis animal model. Specifically, systemic sclerosis was induced by immunizing a 8-week-old SKG mouse with a Vimentin protein as an antigen and then subcutaneously injecting 100 μL of Bleomycin (BLM) six times a week for two weeks. Thereafter, on week 2 of systemic sclerosis induction, the mouse was secondary immunized with the Vimentin protein, and then subcutaneously injected with the STAT6 inhibitor of the present disclosure three times a week at a concentration of 10 mg/kg until week 5 from the starting of the experiment. Thereafter, at the end point of the experiment, the mouse was humanely sacrificed, and skin and lung tissues were obtained, and then the thickness of the skin dermal layer was identified by H&E staining, […] The specific experimental process was illustrated in FIG. 9, and as a control group, a Vimentin antigen-specific systemic sclerosis animal model (vim SSc group) with increased disease symptom activity by a Vimentin antigen was used.

[8] = test system: CD103 and CD8 positive cells (CD8 TRM); assay: IL-17 or IFNγ expression CD103 and CD8 positive cells (CD8 TRM) in skin of Vimentin antigen-specific systemic sclerosis animal model, confocal microscope; assay type: in vivo, SKG mouse; conditions: 10 mg/kg subcutaneously three times a week; vs vim SSc group
Description: In systemic sclerosis, Vimentin increased the disease symptom activity of systemic sclerosis, and thus, the effect of the STAT6 inhibitor was evaluated in a Vimentin antigen-specific systemic sclerosis animal model. Specifically, systemic sclerosis was induced by immunizing a 8-week-old SKG mouse with a Vimentin protein as an antigen and then subcutaneously injecting 100 μL of Bleomycin (BLM) six times a week for two weeks. Thereafter, on week 2 of systemic sclerosis induction, the mouse was secondary immunized with the Vimentin protein, and then subcutaneously injected with the STAT6 inhibitor of the present disclosure three times a week at a concentration of 10 mg/kg until week 5 from the starting of the experiment. Thereafter, at the end point of the experiment, the mouse was humanely sacrificed, and skin and lung tissues were obtained, and then the thickness of the skin dermal layer was identified by H&E staining, and the expression of CSV in the lung tissue was identified by immunohistochemical staining. The specific experimental process was illustrated in FIG. 9, and as a control group, a Vimentin antigen-specific systemic sclerosis animal model (vim SSc group) with increased disease symptom activity by a Vimentin antigen was used. […]

Compound: NC(=O)c1cnc(Nc2ccc(N3CCOCC3)cc2)nc1NCc1c(F)ccc(F)c1F [STAT6 inhibitor, YM-341619]
- M2/M1 expression ratio (spleen single cells): significantly reduced
- expression of M2 macrophages (spleen single cells): significantly reduced
- expression of Treg (spleen single cells): significantly increased
- expression of pro-fibrosis T cells (IL-4+ T cells and IL-4+ and IL-17+ T cells) (spleen single cells): significantly reduced
- expression of fibrosis gene Col1a1 [1]: significantly decreased
- expression of fibrosis gene TGF-β [1]: significantly decreased
- expression of fibrosis gene α-SMA [1]: significantly decreased
- activity of M2 macrophages capable of inducing fibrosis in blood (M2 macrophages): significantly reduced
- thickness of the skin dermal layer [2]: significantly reduced
- histological score for pulmonary fibrosis [3]: significantly reduced
- expression of Col1 in skin tissue [4]: significantly reduced
- expression of IL-17 in skin tissue [4]: significantly reduced
- expression of aSMA in skin tissue [4]: significantly reduced
- number of CSV positive cells in skin tissue [4]: significantly reduced
- expression of Col1 in lung tissue [5]: significantly reduced
- expression of IL-17 in lung tissue [5]: significantly reduced
- expression of aSMA in lung tissue [5]: significantly reduced
- number of CSV positive cells in lung tissue [5]: significantly reduced
- expression of pSTAT6 and CD8 positive T cells in lung tissue ([6]; lung): significantly reduced
- expression of pSTAT6 and CD8 positive T cells in skin tissue ([6]; skin): significantly reduced
- expression of CSV in the skin tissue [7]: significantly reduced
- thickness of the skin dermis layer [7]: significantly reduced
- IFNγ expression CD103 and CD8 positive cells in skin tissue [8]: no change
- IL-17 expression CD103 and CD8 positive cells (CD8 TRM) in skin tissue [8]: significantly reduced
